From US10654895B2, “Polypeptide, DNA molecule encoding the polypeptide, vector, preparation method and use” (WUHAN MORE BIOTECHNOLOGY CO., LTD., priority 2013, dated 2020)
Several values for one entry are separate records, joined by “and”; a condition that tells them apart may be missing. Identical values can stand only once. Like-named read-outs stand apart in the source and are kept apart here. No end group written: not given here.

What was measured:
[1] = system: Enterococcus
[2] = system: Citrobacter
[3] = system: M. tuberculosis; assay: MIC test by the third party; type: cell-based, Mycobacterium tuberculosis
[4] = system: Bacteroides fragilis; assay: Bacteriostasis experiment on anaerobic bacterium, 96-well plate MIC; type: cell-based
[5] = system: Klebsiella pneumoniae; details: K. pneumoniae
[6] = system: methicillin-sensitive coagulase-negative staphylococci (MSSCNS)
[7] = system: Haemophilus influenza; details: H. influenzae
[8] = system: Staphylococcus aureus
[9] = system: Serratia fonticola; details: S. fonticola
[10] = system: Streptococcus hemolyticus / S. pyogenes (β-hemolytic streptococcus); details: for Minimum inhibitory concentration MIC: test by the third party
[11] = system: E. faecalis
[12] = system: Proteusbacillus vulgaris
[13] = system: Escherichia coli
[14] = system: Pseudomonas aeruginosa
[15] = system: K. oxytoca
[16] = system: Bordetella pertussis; details: B. pertussis
[17] = system: Clostridium tetani; type: cell-based
[18] = system: Methicillin-resistant Staphylococcus aureus (MRSA)
[19] = system: Acinetobacter baumannii; details: A. baumannii (clinically isolated strain, 2 strains in Table 3)
[20] = system: Corynebacterium acnes; details: C. acnes
[21] = system: Shigella dysentery (dysentery bacilli)
[22] = system: Neisseria gonorrhoeae; details: N. gonorrhoeae
[23] = system: methicillin-resistant coagulase-negative staphylococci (MRSCNS)
[24] = system: E. cloacae
[25] = system: Corynebacterium diphtheriae; details: C. diphtheriae
[26] = system: Neisseria meningitidis; details: N. meningitidis
[27] = system: S. agalactiae
[28] = system: Salmonella typhimurium
[29] = system: S. pneumoniae
[30] = system: Clostridium perfringens; type: cell-based
[31] = system: E. faecium

FIRIARLLRIF [Ctryamp, FIRIARLLRIF]
4 µg/mL: Minimum inhibitory concentration MIC ([6]; MSSCNS, 5 strains, test by the third party) | Minimum inhibitory concentration MIC ([13]; ATCC25922 (non-ESBLs-producing), test by the third party) | Minimum inhibitory concentration MIC ([13]; ATCC35218 (ESBLs-producing), test by the third party) | Minimum inhibitory concentration MIC ([23]; 11 strains, test by the third party)
25 µg/mL: Minimum inhibitory concentration MIC [3] | Minimum inhibitory concentration MIC [5] | Minimum inhibitory concentration MIC [17] | Minimum inhibitory concentration MIC [27] | Minimum inhibitory concentration MIC [30] | Minimum inhibitory concentration MIC [31]
16 µg/mL: Minimum inhibitory concentration MIC ([10]; Erythromycin-sensitive S. pyogenes, 4 strains)
8 µg/mL: Minimum inhibitory concentration MIC ([8]; S. aureus ATCC 29213, test by the third party) | Minimum inhibitory concentration MIC ([10]; Streptococcus ATCC 19615 (standard strain)) | Minimum inhibitory concentration MIC ([14]; P. aeruginosa ATCC27853 (standard strain), test by the third party) | Minimum inhibitory concentration MIC ([14]; Pseudomonas aeruginosa, strain not specified (Table 8))
12.5 µg/mL: Minimum inhibitory concentration MIC [2] | Minimum inhibitory concentration MIC [4] | Minimum inhibitory concentration MIC [9] | Minimum inhibitory concentration MIC ([13]; standard Escherichia coli (Table 2)) | Minimum inhibitory concentration MIC [15] | Minimum inhibitory concentration MIC [19] | Minimum inhibitory concentration MIC [24] | Minimum inhibitory concentration MIC [28]
3.13 µg/mL: Minimum inhibitory concentration MIC [7] | Minimum inhibitory concentration MIC [16] | Minimum inhibitory concentration MIC [20] | Minimum inhibitory concentration MIC [25] | Minimum inhibitory concentration MIC [29]
1.63 to 6.25 µg/mL: Minimum inhibitory concentration MIC ([8]; S. aureus clinically isolated strain, 17 strains)
3.13 to 12.5 µg/mL and 4 to 8 µg/mL: Minimum inhibitory concentration ([23]; stated jointly with MRSA, 4-8 = test results from the third party)
50 µg/mL: Minimum inhibitory concentration MIC [11]
6.25 to 12.5 µg/mL: Minimum inhibitory concentration MIC ([13]; E. coli clinically isolated strain, 8 strains)
8 to 16 µg/mL: Minimum inhibitory concentration MIC ([10]; Erythromycin-resistant S. pyogenes, 11 strains) | MIC ([10]; Streptococcus hemolyticus) | Minimum inhibitory concentration MIC ([14]; P. aeruginosa IPM-R strain, 8 strains, test by the third party) | Minimum inhibitory concentration MIC ([14]; P. aeruginosa IPM-S strain, 4 strains, test by the third party)
6.25 µg/mL and 6.5 µg/mL: Minimum inhibitory concentration MIC [21]
6.25 µg/mL: MIC [1] | Minimum inhibitory concentration MIC ([8]; S. aureus standard strain ATCC25923) | Minimum inhibitory concentration MIC ([8]; standard Staphylococcus aureus (Table 2)) | MIC [12] | Minimum inhibitory concentration MIC ([13]; E. coli ATCC25922 (standard strain)) | Minimum inhibitory concentration MIC ([18]; Methicillin-resistant Staphylococcus aureus (Table 8)) | Minimum inhibitory concentration MIC [22] | Minimum inhibitory concentration MIC [26]
100%: inhibition rate ([8]; at 6.25 μg/mL, Staphylococcus aureus CCTCCAB94004) | inhibition rate ([13]; at 6.25 μg/mL, Escherichia coli CCTCCAB94012)
3.13 to 12.5 µg/mL: MIC ([6]; methicillin-sensitive coagulase-negative staphylococci) | Minimum inhibitory concentration MIC ([18]; MRSA, 5 strains)
6.25 to 12.5 µg/mL and 6.25 µg/mL: Minimum inhibitory concentration MIC ([13]; Escherichia coli, strain not specified (Table 8))
4 to 8 µg/mL: Minimum inhibitory concentration MIC ([13]; ESBLs-producing E. coli, 10 strains, test by the third party) | Minimum inhibitory concentration MIC ([13]; non-ESBLs-producing E. coli, 4 strains, test by the third party) | Minimum inhibitory concentration MIC ([18]; MRSA, 11 strains, test by the third party)
